“Also recorded” adds a separate entry of the source.
Assay: Semi-quantitative distribution of I5NP siRNA in lung (hybridization assay)
Format: in vivo, cynomolgus monkeys
Method: On Day 15 of the study, two of the available animals (101 and 102) were administered a target dose of 35 mg/kg of a mixture of I5NP and REDD14Cy3.5 (fluorescence-labelled) siRNA via an oronasal mask as a nebulized aerosol generated by the Aeroneb device. A 2.0 L/min dilution airflow was used. The total dose of siRNA administered was calculated, based on the bodyweights and measured respiratory minute volumes of the animals, and on the achieved output of the Aeroneb device using the formulation concentration of 40 mg/mL of siRNA. The administered dose was adjusted by changing the exposure times for the animals
On Day 35 of the Study, the three remaining main study animals (103 to 105) were administered a target dose of 35 mg/kg of I5NP siRNA via an oronasal mask as a nebulized aerosol generated by the Aeroneb device. A 2.0 L/min dilution airflow was used. The total dose administered was calculated, based on the bodyweights and measured respiratory minute volumes of the animals, and on the achieved output of the Aeroneb device using the formulation concentration of 40 mg/mL. The administered dose was adjusted by changing the exposure times for the animals.
At the time of necropsy following Treatment 2, the lungs of animal 101 were removed from the animal. The lungs were separated into individual lobes. The bronchi/bronchioles and immediately surrounding regions of each lobe were dissected out as carefully as was practicable and pooled, per lobe. The remaining tissue areas were pooled, per lobe. Each pooled sample (i.e. bronchi/bronchioles and remaining tissue for each lobe) was stored deep-frozen (−80° C.) for analysis via hybridization assay. Lung samples from animal 101 were tracked using the Watson LIMS system.
At each specified time of necropsy following Treatment 3, the lungs of animals 103, 104 or 105 were removed from the animals. Each set of lungs were separated into individual lobes. The bronchi/bronchioles and immediately surrounding regions of each lobe were dissected out as carefully as was practicable and pooled, per lobe. The remaining tissue areas were pooled, per lobe. […]
All lung samples from animal 101 (i.e. left cranial lobe, bronchioles and remainder; left caudal lobe, bronchioles and remainder; right cranial lobe, bronchioles and remainder; right middle lobe, bronchioles and remainder; right caudal lobe, bronchioles and remainder and right accessory lobe, bronchioles and remainder) were analyzed for I5NP siRNA concentration. For animals 103, 104 and 105, left cranial lobe (bronchioles and remainder) and right caudal lobe (bronchioles and remainder) were analyzed for I5NP siRNA concentration. […] The results obtained for lung samples were considered as semi-quantitative.

I5NP: exemplary p53 inhibiting siRNA; sense GAGAAUAUUUCACCCUUCA, antisense UGAAGGGUGAAAUAUUCUC (chemistry not given here)
I5NP concentration in bronchioles and peripheral lung tissues (Treatment 2 (I5NP:REDD14Cy3.5 9:1), animal 101, approximately 30 minutes post-end of dosing, all 6 lobes, semi-quantitative): found in high concentrations in both bronchioles and in peripheral tissues of all lobes of each lung
I5NP concentration, peripheral tissues versus bronchiolar samples (Treatment 2, animal 101, approximately 30 minutes post-end of dosing): generally higher in the peripheral tissues than in the bronchiolar samples
relative concentrations in bronchiolar and peripheral lung tissues over time (Treatment 3, animals 103, 104, 105, 6, 24 and 72 h post-end of dosing, left cranial and right caudal lobes): still detectible at 72 hours post-end of dosing
levels in lungs compared with plasma (all time points post-dose): at all times greater than those in plasma; also recorded: higher than in plasma
